# In ChEMBL document CHEMBL1201862, “PubChem BioAssay data set” (2004):
# Activity calls are given as the source filed them.
# Key:
# [1] = molecular target: E3 ubiquitin-protein ligase Mdm2 (Homo sapiens, UniProt Q00987); assay: enhancers of MDM2-luciferase reporter signal, concentration-effect titration, project on inhibitors of MDM2 ubiquitin ligase, cellular assay, luminescent readout, 384-well plate format (AID 1394); format: functional;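 also: MDM2 E3 inhibitors raise luminescence so EC50 is for signal enhancement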
# Sequence of E3 ubiquitin-protein ligase Mdm2 (Q00987 whole entry): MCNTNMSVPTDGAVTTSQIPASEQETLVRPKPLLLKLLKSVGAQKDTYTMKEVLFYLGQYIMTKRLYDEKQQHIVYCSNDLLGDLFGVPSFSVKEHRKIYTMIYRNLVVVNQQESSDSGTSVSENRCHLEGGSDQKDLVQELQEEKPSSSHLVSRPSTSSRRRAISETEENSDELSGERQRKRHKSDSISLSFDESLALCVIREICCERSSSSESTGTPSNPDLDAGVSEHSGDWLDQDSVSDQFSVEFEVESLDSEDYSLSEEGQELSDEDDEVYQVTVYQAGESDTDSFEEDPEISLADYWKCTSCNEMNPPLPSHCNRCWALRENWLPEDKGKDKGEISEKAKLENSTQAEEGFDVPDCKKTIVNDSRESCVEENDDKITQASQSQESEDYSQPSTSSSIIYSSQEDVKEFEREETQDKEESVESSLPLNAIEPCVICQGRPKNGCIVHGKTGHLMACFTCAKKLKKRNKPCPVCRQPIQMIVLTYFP
# [2] = Glucagon-like peptide 1 release potency, NCI-H716 cell line, dose-response, half-maximal inhibitory concentration (AID 1117344); format: functional, cell-based
# [3] = molecular target: T1, RNA-binding protein pos-1 (Caenorhabditis elegans, UniProt G5EF15); assay: inhibitors of POS-1/mex-3 RNA binding, dose response, biochemical, fluorescence polarization (AID 1964);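 also: purified POS-1 fused to maltose binding protein made in E. coli; potency of compounds blocking POS-1 binding to fluorescent RNA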
# T1 sequence (G5EF15 whole entry): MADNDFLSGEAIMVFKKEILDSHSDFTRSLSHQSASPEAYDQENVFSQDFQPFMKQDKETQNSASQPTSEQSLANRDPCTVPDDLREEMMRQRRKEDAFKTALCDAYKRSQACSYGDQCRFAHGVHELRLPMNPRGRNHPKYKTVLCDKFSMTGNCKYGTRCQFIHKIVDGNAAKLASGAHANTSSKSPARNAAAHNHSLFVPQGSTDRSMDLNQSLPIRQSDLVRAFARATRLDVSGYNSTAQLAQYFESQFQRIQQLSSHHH
# [4] = molecular target: T2, Zinc finger protein mex-5 (Caenorhabditis elegans, UniProt Q9XUB2); assay: MEX-5/TCR-2 RNA interaction inhibitors, dose response, biochemical, C. elegans, fluorescence polarization (AID 1960)
# T2 sequence (Q9XUB2 whole entry): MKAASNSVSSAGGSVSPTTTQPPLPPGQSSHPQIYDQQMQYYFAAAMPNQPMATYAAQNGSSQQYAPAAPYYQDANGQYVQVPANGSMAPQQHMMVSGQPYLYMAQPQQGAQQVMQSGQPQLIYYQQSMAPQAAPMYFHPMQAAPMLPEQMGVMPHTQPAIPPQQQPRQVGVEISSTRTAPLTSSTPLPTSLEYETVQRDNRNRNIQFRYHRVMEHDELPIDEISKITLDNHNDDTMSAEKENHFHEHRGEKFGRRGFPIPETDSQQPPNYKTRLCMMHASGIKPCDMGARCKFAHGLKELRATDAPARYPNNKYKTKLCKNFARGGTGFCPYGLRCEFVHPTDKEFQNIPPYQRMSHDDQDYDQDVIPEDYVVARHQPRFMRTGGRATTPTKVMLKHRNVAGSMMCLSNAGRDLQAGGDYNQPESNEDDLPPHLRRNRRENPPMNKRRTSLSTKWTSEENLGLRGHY
# [5] = molecular target: T3, Histone-lysine N-methyltransferase NSD2 (Homo sapiens, UniProt O96028); format: biochemical
# T3 sequence (O96028 whole entry): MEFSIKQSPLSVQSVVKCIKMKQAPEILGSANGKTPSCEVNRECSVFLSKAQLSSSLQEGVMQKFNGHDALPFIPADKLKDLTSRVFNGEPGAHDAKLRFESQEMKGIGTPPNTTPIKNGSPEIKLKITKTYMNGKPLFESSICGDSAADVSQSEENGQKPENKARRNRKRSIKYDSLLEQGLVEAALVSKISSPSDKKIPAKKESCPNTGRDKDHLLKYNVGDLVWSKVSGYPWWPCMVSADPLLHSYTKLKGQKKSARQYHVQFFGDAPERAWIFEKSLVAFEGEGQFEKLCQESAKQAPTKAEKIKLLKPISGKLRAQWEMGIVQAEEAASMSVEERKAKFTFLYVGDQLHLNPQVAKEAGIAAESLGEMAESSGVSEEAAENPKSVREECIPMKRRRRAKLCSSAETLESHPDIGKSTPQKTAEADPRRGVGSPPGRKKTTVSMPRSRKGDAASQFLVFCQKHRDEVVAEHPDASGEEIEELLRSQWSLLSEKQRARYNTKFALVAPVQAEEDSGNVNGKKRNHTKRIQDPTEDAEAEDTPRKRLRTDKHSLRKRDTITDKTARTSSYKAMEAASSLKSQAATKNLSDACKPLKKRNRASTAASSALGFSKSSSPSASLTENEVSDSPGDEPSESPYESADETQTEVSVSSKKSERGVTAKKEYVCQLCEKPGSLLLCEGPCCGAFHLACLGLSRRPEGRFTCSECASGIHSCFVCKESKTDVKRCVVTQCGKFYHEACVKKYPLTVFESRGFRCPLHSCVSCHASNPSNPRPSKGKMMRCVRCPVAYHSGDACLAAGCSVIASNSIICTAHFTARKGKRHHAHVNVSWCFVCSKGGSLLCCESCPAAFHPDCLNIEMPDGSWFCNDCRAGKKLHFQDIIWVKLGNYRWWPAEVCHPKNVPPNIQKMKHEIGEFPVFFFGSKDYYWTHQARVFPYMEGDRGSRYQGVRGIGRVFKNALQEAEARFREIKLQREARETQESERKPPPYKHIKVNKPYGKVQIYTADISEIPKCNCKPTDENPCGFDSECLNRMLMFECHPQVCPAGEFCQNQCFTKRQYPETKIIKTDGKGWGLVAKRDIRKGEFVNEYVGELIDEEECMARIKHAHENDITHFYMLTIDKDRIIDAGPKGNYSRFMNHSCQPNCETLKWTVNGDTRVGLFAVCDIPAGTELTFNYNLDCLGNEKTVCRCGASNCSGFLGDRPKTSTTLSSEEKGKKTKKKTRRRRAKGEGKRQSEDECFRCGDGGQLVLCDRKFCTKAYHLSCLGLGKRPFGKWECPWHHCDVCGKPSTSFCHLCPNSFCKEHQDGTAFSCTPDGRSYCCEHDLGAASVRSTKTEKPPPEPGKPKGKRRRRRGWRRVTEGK
# [6] = molecular target: Protein Tat (Human immunodeficiency virus type 1 group M subtype B (isolate HXB2)(HIV-1), UniProt P04608); format: functional;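 also: tat binding to TAR RNA read out by fluorescence polarization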
# Sequence of Protein Tat (P04608 whole entry): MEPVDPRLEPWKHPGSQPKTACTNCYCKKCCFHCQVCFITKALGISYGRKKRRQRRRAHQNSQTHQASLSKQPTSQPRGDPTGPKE
# [7] = molecular target: T4, Aminopeptidase N (Plasmodium falciparum FcB1/Columbia, UniProt O96935); assay: P. falciparum M1AAP inhibitors, biochemical, fluorogenic H-Leu-NHMec substrate, 1536-well (AID 1445); parameters: species or system Plasmodium falciparum 3D7, 3D7
# T4 sequence (O96935 whole entry): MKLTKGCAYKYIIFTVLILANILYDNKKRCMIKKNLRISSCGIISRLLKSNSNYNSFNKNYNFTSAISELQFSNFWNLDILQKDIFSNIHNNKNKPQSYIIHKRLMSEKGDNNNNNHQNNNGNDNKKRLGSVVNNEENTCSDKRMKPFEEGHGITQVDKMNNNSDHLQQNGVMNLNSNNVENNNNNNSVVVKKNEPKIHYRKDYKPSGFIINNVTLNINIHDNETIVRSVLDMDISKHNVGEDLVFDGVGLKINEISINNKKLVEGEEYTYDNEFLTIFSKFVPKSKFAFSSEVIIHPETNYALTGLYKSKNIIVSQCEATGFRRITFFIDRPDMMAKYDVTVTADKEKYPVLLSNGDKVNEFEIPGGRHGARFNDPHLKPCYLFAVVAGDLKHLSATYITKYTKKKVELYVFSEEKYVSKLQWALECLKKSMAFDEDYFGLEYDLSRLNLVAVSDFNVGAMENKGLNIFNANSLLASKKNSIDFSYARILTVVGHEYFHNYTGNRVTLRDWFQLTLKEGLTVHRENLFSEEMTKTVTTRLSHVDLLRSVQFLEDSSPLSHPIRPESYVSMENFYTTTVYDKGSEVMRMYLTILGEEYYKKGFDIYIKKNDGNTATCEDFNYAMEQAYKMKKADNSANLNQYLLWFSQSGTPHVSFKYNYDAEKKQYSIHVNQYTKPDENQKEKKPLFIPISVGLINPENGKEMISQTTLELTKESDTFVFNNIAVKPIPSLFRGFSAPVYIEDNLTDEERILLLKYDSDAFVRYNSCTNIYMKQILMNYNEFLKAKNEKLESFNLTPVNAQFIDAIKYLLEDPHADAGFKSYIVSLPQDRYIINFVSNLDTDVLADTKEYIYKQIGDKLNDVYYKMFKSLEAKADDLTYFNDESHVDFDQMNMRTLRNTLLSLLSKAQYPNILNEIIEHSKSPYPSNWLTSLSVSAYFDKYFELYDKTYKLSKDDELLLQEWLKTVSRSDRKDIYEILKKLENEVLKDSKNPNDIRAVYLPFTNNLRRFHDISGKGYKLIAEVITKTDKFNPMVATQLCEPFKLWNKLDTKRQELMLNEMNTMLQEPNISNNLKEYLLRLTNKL
# [8] = test system: Streptococcus sp. 'group A'; assay: growth inhibition of control SK(-) GAS strain, dose response, counter-screen for streptokinase expression inhibitor project, luminescence, kanamycin, BacTiterGlo, confirmation (AID 1900); format: functional, organism-based
# [9] = molecular target: T5, Streptokinase A (Streptococcus pyogenes serotype M1, UniProt P10520); assay: S. pyogenes streptokinase expression inhibitors, potency, dose response, plasminogen activation absorbance, OD405 (AID 1914); format: functional, Streptococcus pyogenes M1 GAS;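 also: secreted streptokinase activity via plasminogen activation per viability signal from cell pellet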
# T5 sequence (P10520 whole entry): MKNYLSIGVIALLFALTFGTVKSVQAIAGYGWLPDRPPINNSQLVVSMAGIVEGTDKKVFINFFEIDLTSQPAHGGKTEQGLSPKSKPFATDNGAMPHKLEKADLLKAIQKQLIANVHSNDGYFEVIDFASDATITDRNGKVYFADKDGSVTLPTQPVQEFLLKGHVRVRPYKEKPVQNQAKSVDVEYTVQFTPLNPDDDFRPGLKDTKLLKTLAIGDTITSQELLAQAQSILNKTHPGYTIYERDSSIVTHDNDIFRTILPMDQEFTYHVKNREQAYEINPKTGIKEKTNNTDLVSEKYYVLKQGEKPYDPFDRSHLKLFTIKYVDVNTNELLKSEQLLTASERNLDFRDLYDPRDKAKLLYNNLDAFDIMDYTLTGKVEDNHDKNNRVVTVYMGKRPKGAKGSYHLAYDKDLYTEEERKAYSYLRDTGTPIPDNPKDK
# [10] = molecular target: Bifunctional protein GlmU (Mycobacterium tuberculosis, UniProt P9WMN3); assay: Inhibitors of Mycobacterial Glucosamine-1-phosphate acetyl transferase (GlmU). Secondary screen.; parameters: species or system Mycobacterium tuberculosis H37Rv
# Sequence of Bifunctional protein GlmU (P9WMN3 whole entry): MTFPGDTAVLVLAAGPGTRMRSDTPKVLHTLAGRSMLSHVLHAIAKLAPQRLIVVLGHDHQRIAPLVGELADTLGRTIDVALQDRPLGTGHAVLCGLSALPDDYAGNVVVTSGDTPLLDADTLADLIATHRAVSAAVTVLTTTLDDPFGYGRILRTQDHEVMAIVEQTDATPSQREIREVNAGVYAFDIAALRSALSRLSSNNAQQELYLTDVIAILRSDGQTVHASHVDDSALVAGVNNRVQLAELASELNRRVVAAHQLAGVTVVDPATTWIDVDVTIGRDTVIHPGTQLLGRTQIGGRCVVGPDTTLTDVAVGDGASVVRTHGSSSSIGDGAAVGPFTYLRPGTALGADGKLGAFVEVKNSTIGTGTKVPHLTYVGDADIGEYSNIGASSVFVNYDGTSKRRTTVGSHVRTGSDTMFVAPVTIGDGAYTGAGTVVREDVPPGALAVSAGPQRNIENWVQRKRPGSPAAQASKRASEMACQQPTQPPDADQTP
# [11] = molecular target: Induced myeloid leukemia cell differentiation protein Mcl-1 (Homo sapiens, UniProt Q07820); format: functional
# Sequence of Induced myeloid leukemia cell differentiation protein Mcl-1 (Q07820 whole entry): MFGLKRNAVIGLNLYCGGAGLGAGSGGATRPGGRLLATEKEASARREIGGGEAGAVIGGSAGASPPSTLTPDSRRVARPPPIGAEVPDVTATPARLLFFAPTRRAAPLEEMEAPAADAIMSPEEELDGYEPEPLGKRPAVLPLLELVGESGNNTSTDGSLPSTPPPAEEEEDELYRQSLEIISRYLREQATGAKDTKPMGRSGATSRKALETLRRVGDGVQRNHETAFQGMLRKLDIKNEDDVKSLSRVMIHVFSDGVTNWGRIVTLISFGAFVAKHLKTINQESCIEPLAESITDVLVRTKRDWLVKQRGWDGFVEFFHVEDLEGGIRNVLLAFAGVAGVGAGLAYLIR
# [12] = test system: Streptococcus; assay: Group A Streptococcus viability loss, dose response, counter-screen for streptokinase expression inhibitor project, luminescence, BacTiterGlo (AID 1915); format: functional, organism-based;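 also: potency for reduction of bacterial viability or growth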
# [13] = molecular target: T6, Probable nicotinate-nucleotide adenylyltransferase (Staphylococcus aureus (strain N315), UniProt P65502); format: functional, Staphylococcus aureus subsp. aureus N315;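 as to IC50 Mean: confirmatory dose-response retesting of NadD inhibitor hits first found in an ultra-high-throughput screen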
# T6 sequence (P65502 whole entry): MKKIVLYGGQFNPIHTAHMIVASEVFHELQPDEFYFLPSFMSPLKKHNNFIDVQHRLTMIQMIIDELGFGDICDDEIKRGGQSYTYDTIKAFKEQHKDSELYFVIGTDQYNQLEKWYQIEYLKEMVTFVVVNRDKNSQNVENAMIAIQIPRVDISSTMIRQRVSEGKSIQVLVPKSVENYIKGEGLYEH
# [14] = molecular target: T6, Probable nicotinate-nucleotide adenylyltransferase; format: functional, Staphylococcus aureus subsp. aureus N315; conditions: read-out: IC50_Mean
# [15] = Shn3 3'UTR reporter inhibitors, dose response, cell-based, Clone20 osteoblasts, firefly luciferase, cherry-picked (AID 624132); format: functional;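 also: firefly luciferase luminescence from reporter carrying the Shn3 3'UTR in osteoblasts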
# [16] = HepG2 cell cytotoxicity, dose response, cytotoxicity control for Shn3 inhibitor project, CellTiter-Glo, cherry-picked (AID 624134); format: functional, cell-based
# [17] = control 3'UTR Renilla luciferase suppression, dose response, counter-screen for Shn3 inhibitor project, cell-based, Clone20-Shn3RL, cherry-picked (AID 624133); format: functional
compound,measurement,setting,value
COc1ccc(C2C(C(=O)N3CCCCC3)CCC(=O)N2c2cc(OC)c(OC)c(OC)c2)cc1 (stereo not drawn),EC50,[1],47.1 µM (not active)
Cc1ccc(C(=O)Nc2ccc(S(=O)(=O)O)c3cc(S(=O)(=O)O)cc(S(=O)(=O)O)c23)cc1NC(=O)c1cccc(NC(=O)Nc2cccc(C(=O)Nc3cc(C(=O)Nc4ccc(S(=O)(=O)O)c5cc(S(=O)(=O)O)cc(S(=O)(=O)O)c45)ccc3C)c2)c1 [SURAMIN],IC50,[2],> 40 µM (inactive)
O=C(c1coc(=O)c(Br)c1)N1CCCc2ccccc21,EC50,[3],> 300 µM (not active)
same,EC50,[4],> 300 µM (not active)
same,AC50,[5],12.2 µM (active)
same,IC50,[6],4.84 µM (inconclusive)
O=C(N/N=C/c1ccc(-c2ccc(Cl)c(C(=O)O)c2)o1)c1cc2c(ccc3ccccc32)o1,IC50,[7],9.45 µM (active)
same,EC50,[8],3.13 µM (active)
same,EC50,[9],> 150 µM (not active)
same,IC50,[10],58.8 µM (active)
same,IC50,[11],1.55 µM (active)
same,EC50,[12],66.6 µM (inconclusive)
same,IC50,[13],3.91 µM (active)
same,IC50,[14],10.7 µM (active)
Cc1cc(C)nc(S/C=C/C(=O)c2ccccc2)n1,EC50,[1],1.32 µM (active)
same,AC50,[15],1.72 µM (active)
same,AC50,[16],42.4 µM (active)
same,AC50,[17],9.3 µM (active)
